Reference: publication PMC7465040, “Cytotoxic and Anti-Plasmodial Activities of Stephania dielsiana Y.C. Wu Extracts and the Isolated Compounds” (Molecules, 2020)
Where two headings read alike, the source gives them in different places.

Experiments:
HeLa = assay: SRB cell proliferation assay, HeLa; format: cell-based, human; conditions: for IC50: Homo sapiens, HeLa; for Selectivity index (SI) 184B5 versus HeLa / Selectivity index (SI) MCF10A versus HeLa: Table 2B; for Selectivity index (SI) 184B5 versus HeLa: non-cancer 184B5 vs cancer HeLa; for Selectivity index (SI) MCF10A versus HeLa: non-cancer MCF10A vs cancer HeLa
Experimental: (§1) In vitro anticancer study: The in vitro anti-proliferative tests were carried out as described previously, using aliquots of the cell lines used therein. Briefly, HeLa, MDA-MB-231 and MDA-MB-468, MCF7, and 184B5 and MCF 10A cell lines were purchased from ATCC. The identity of the cell lines presented in this study were verified by short tandem repeat profiling by Genetica DNA Laboratories (www.celllineauthentication.com) (April 8, 2015). MCF10A was grown in DMEM F12 medium supplemented with 0.02 μg/mL epidermal growth factor, 10% FBS, 10 μg/mL insulin and […] hydrocortisone. MDA-MB-468 were grown in DMEM supplemented with 10% FBS and antibiotics cocktail (100 μg/mL streptomycin, 100 units/mL penicillin and 250 ng/mL amphotericin B). SRB cell proliferation assays were carried out as previously described, with some minor modifications. The concentration range for all tested cell lines were from 100–0.39 μg/mL for extracts and 100–0.39 μM for pure compounds. […] All experiments were carried out at least twice.

MDA-MB-231 = assay: SRB cell proliferation assay, MDA-MB-231; format: cell-based, human; conditions: for IC50: Homo sapiens; for Selectivity index (SI) 184B5 versus MDA-MB-231 / Selectivity index (SI) MCF10A versus MDA-MB-231: Table 2B; for Selectivity index (SI) 184B5 versus MDA-MB-231: non-cancer 184B5 vs cancer MDA-MB-231; for Selectivity index (SI) MCF10A versus MDA-MB-231: non-cancer MCF10A vs cancer MDA-MB-231
Experimental: as §1

MDA-MB-468 = assay: SRB cell proliferation assay, MDA-MB-468; format: cell-based, human; conditions: for IC50: Homo sapiens; for Selectivity index (SI) 184B5 versus MDA-MB-468 / Selectivity index (SI) MCF10A versus MDA-MB-468: Table 2B; for Selectivity index (SI) 184B5 versus MDA-MB-468: non-cancer 184B5 vs cancer MDA-MB-468; for Selectivity index (SI) MCF10A versus MDA-MB-468: non-cancer MCF10A vs cancer MDA-MB-468
Experimental: as §1

MCF7 = assay: SRB cell proliferation assay, MCF7; format: cell-based, human; conditions: for IC50: Homo sapiens; for Selectivity index (SI) 184B5 versus MCF7 / Selectivity index (SI) MCF10A versus MCF7: Table 2B; for Selectivity index (SI) 184B5 versus MCF7: non-cancer 184B5 vs cancer MCF7; for Selectivity index (SI) MCF10A versus MCF7: non-cancer MCF10A vs cancer MCF7
Experimental: as §1

184B5 = assay: SRB cell proliferation assay, 184B5 non-cancer cells; format: cell-based, human; conditions: Homo sapiens
Experimental: as §1

MCF 10A = assay: SRB cell proliferation assay, MCF10A non-cancer cells; format: cell-based; conditions: Homo sapiens
Experimental: as §1

[1] = test system: chloroquine-susceptible 3D7 P. falciparum strain; assay: In vitro anti-plasmodial assay (HRP2 ELISA), 3D7; format: cell-based, Plasmodium falciparum; conditions: for IC50: Plasmodium falciparum, 3D7, 72 h, read-out: IC50 (μM ± SD) 3D7; for SI 3D7 184B5 / SI 3D7 MCF10A: Table 3; for SI 3D7 184B5: selectivity index between 184B5 and parasites 3D7; for SI 3D7 MCF10A: selectivity index between MCF10A and parasites 3D7
Experimental: (§2) Parasites were grown in A-positive human blood (Etablissement Français du Sang, Marseille, France) under controlled atmospheric conditions that consisted of 10% O2, 5% CO2, and 85% N2 at 37 °C with a humidity of 95%.
(§3) In vitro anti-plasmodial assay: The two P. falciparum strains 3D7 and W2 were synchronized twice with sorbitol before use. The clonality of these strains was verified both in our laboratory and in an independent laboratory from the Worldwide Anti-malarial Resistance Network (WWARN) by PCR genotyping of the polymorphic genetic markers msp1 and msp2 and microsatellite loci. The compounds were re-suspended in methanol or DMSO 5% (v/v) and then diluted in methanol to obtain final concentrations ranging from 0.008 to 500 μg/mL (final concentration of 0.5% of methanol or DMSO). […] The plates were incubated for 72 h at 37 °C in controlled atmospheric conditions 5% CO2, 10% O2, and […]. After thawing the plates, haemolysed cultures were homogenized by vortexing the plates. Both the success of the drug susceptibility assay and the appropriate volume of haemolysed culture to use for each assay were determined for each clinical isolate during a preliminary HRP2 ELISA. Both the pre-test and subsequent ELISA assays were performed using a commercial kit (Malaria Ag Celisa, ref KM2159, Cellabs PTY LTD, Brookvale, Australia) according to the manufacturer’s recommendation. The optical density (OD) of each sample was measured with a spectrophotometer (Safire 2, Tecan, Lyon, France). […] The anti-plasmodial in vitro assay was performed five times for each product. The IC50 values represented the mean value calculated from five experiments. According to Hout, a selectivity index (SI) was based on the ratio between anti-parasitic and cytotoxic activities. In the case of our study, a SI was calculated between non-tumorigenic cell line 184B5 and parasites 3D7 or W2 and/or MCF10A and these two parasites.

[2] = test system: chloroquine-resistant W2 P. falciparum strain; assay: In vitro anti-plasmodial assay (HRP2 ELISA), W2; format: cell-based, Plasmodium falciparum; conditions: for IC50: Plasmodium falciparum, W2, 72 h, read-out: IC50 (μM ± SD) W2; for SI W2 184B5 / SI W2 MCF10A: Table 3; for SI W2 184B5: selectivity index between 184B5 and parasites W2; for SI W2 MCF10A: selectivity index between MCF10A and parasites W2
Experimental: as §2, §3

[3] = test system: HeLa, MDA-MB231, MDA-MB-468, MCF7, 184B5 and MCF10A cell lines; assay: SRB cell proliferation assay, whole panel of cell lines; format: cell-based, human; conditions: Homo sapiens; cancer and non-cancer cell lines; read-out: IC50 values, range over the cell lines examined
Experimental: as §1

[4] = test system: Plasmodium falciparum 3D7 and W2 strains; assay: In vitro anti-plasmodial assay, both strains; format: cell-based
Experimental: as §2, §3

[5] = 72 h, read-out: IC50 (μM ± SD) HeLa
[6] = MDA-MB-231, 72 h, read-out: IC50 (μM ± SD) MDA-MB-231
[7] = MDA-MB-468, 72 h, read-out: IC50 (μM ± SD) MDA-MB-468
[8] = MCF7, 72 h, read-out: IC50 (μM ± SD) MCF7
[9] = 184B5, 72 h, read-out: IC50 (μM ± SD) 184B5
[10] = 184B5, read-out: IC50 (μM ± SD) 184B5
[11] = 72 h, read-out: IC50 (μM ± SD) MCF 10A
[12] = read-out: IC50 (μM ± SD) MCF 10A
[13] = 184B5, Table 3, non-cancer cell line, read-out: IC50 (μM ± SD) 184B5
[14] = 72 h, HRP2 ELISA, mean of five experiments

Compound | IC50 (HeLa; [5]) | IC50 (MDA-MB-231; [6]) | IC50 (MDA-MB-468; [7]) | IC50 (MCF7; [8]) | IC50 (184B5; [9]) | IC50 (184B5; [10]) | IC50 (MCF 10A; [11]) | IC50 (MCF 10A; [12]) | Selectivity index (SI) 184B5 versus HeLa (HeLa) | Selectivity index (SI) MCF10A versus HeLa (HeLa) | Selectivity index (SI) 184B5 versus MDA-MB-231 (MDA-MB-231) | Selectivity index (SI) MCF10A versus MDA-MB-231 (MDA-MB-231) | Selectivity index (SI) 184B5 versus MDA-MB-468 (MDA-MB-468) | Selectivity index (SI) MCF10A versus MDA-MB-468 (MDA-MB-468) | Selectivity index (SI) 184B5 versus MCF7 (MCF7) | Selectivity index (SI) MCF10A versus MCF7 (MCF7) | IC50 [1, 14] | SI 3D7 184B5 [1] | IC50 [2, 14] | SI W2 184B5 [2] | also measured
CCN(CC)CCCC(C)Nc1ccnc2cc(Cl)ccc12 (centres unmarked) [Chloroquine, reference compound] | 29.8 ± 0.7 µM | 28.9 ± 0.4 µM | 33.2 ± 0.4 µM | > 50 µM | > 50 µM | > 50 µM | 40.5 ± 9.8 µM | 40.5 ± 9.8 µM |  |  |  |  |  |  |  |  |  |  |  |  | IC50 [1]: 0.021 ± 0.005 µM; IC50 [2]: 0.38 ± 0.03 µM
COc1ccc2c(c1OC)-c1c3c(cc4c1C(C2)N(C)CC4)OCO3 (centres unmarked) [O-methylbulbocapine 5, O-methylbulbocapnine] |  |  |  |  |  |  |  |  | 1.04 | 0.85 | 1.29 | 1.05 | 1.52 | 1.24 | 1.86 | 1.51 | 2.81 ± 0.4 µM | 26.07 | 5.71 ± 0.62 µM | 12.83 | IC50 (HeLa; 72 h, Table 2A, SRB, 72 h, read-out: IC50 (μM ± SD) HeLa): 70.4 ± 11.4 µM; IC50 (MDA-MB-231; MDA-MB-231, Table 2A, SRB, 72 h, read-out: IC50 (μM ± SD) MDA-MB-231): 56.6 ± 9.08 µM; IC50 (MDA-MB-468; MDA-MB-468, Table 2A, SRB, 72 h, read-out: IC50 (μM ± SD) MDA-MB-468): 48.1 ± 1.69 µM; IC50 (MCF7; MCF7, Table 2A, SRB, 72 h, read-out: IC50 (μM ± SD) MCF7): 39.4 ± 6.2 µM; IC50 (184B5; 184B5, Table 2A, SRB, 72 h, read-out: IC50 (μM ± SD) 184B5): 73.26 ± 0.47 µM; IC50 (184B5; [13]): 73.26 ± 0.47 µM; IC50 (MCF 10A; Table 2A, SRB, 72 h, read-out: IC50 (μM ± SD) MCF 10A): 59.5 ± 1.9 µM; IC50 (MCF 10A; Table 3, non-cancer cell line, read-out: IC50 (μM ± SD) MCF 10A): 59.5 ± 1.9 µM; SI 3D7 MCF10A [1]: 21.16; Selective index SI on 3D7 strain ([1]; vs 184B5 and MCF10A): > 20; SI W2 MCF10A [2]: 10.42; IC50 [3]: 39 to 73 µM; Anti-plasmodial activity against both 3D7 and W2 (in words) [4]: strong activity
COc1cccc2c1C[C@@H]1c3c(cc4c(c3-2)OCO4)CCN1C [Stephanine 3, stephanine] | 3.33 ± 0.23 µM | 5.66 ± 0.16 µM | 7.14 ± 2.11 µM | 6.49 ± 0.43 µM | 6.25 ± 0.14 µM | 6.25 ± 0.14 µM | 7.19 ± 0.33 µM | 7.19 ± 0.33 µM | 1.88 | 2.16 | 1.10 | 1.27 | 0.88 | 1.01 | 0.96 | 1.11 |  | 9.06 |  | 4.73 | Anti-plasmodial activity on 3D7 (in words) [1]: very effective; IC50 [1]: 0.69 ± 0.15 µM; SI 3D7 MCF10A [1]: 10.42; Anti-plasmodial activity on W2 (in words) [2]: not effective; IC50 [2]: 1.32 ± 0.38 µM; SI W2 MCF10A [2]: 5.45
C[C@H]1[C@@H](O)O[C@@H]2O[C@@]3(C)CC[C@H]4[C@H](C)CC[C@@H]1[C@@]24OO3 [Dihydroartemisinin, reference compound] |  |  |  |  |  |  |  |  |  |  |  |  |  |  |  |  | 0.002 ± 0.001 µM |  | 0.002 ± 0.001 µM |  | 
CC(=O)O[C@H]1C(=O)[C@@]2(C)[C@H]([C@H](OC(=O)c3ccccc3)[C@]3(O)C[C@H](OC(=O)[C@H](O)[C@@H](NC(=O)c4ccccc4)c4ccccc4)C(C)=C1C3(C)C)[C@]1(OC(C)=O)CO[C@@H]1C[C@@H]2O [Paclitaxel, reference compound] |  |  |  |  |  |  |  |  | 0.7 | 0.44 | 1.67 | 1.10 | 0.67 | 0.42 | 0.98 | 0.62 |  |  |  |  | IC50 (HeLa; Table 2A, paclitaxel in nM (footnote a), read-out: IC50 HeLa): 0.00381 ± 0.00042 µM; IC50 (MDA-MB-231; MDA-MB-231, Table 2A, paclitaxel in nM (footnote a), read-out: IC50 MDA-MB-231): 0.00158 ± 0.00075 µM; IC50 (MDA-MB-468; MDA-MB-468, Table 2A, paclitaxel in nM (footnote a), read-out: IC50 MDA-MB-468): 0.00396 ± 0.00032 µM; IC50 (MCF7; MCF7, Table 2A, paclitaxel in nM (footnote a), read-out: IC50 MCF7): 0.00271 ± 0.00111 µM; IC50 (184B5; 184B5, Table 2A, paclitaxel in nM (footnote a), read-out: IC50 184B5): 0.00265 ± 0.00191 µM; IC50 (MCF 10A; Table 2A, paclitaxel in nM (footnote a), read-out: IC50 MCF 10A): 0.00167 ± 0.00021 µM
OC(c1cc(C(F)(F)F)nc2c(C(F)(F)F)cccc12)C1CCCCN1 (centres unmarked) [Mefloquine, reference compound] |  |  |  |  |  |  |  |  |  |  |  |  |  |  |  |  | 0.052 ± 0.009 µM | 207.6 | 0.022 ± 0.006 µM | 490.9 | IC50 (184B5; [13]): 10.8 ± 0.75 µM
